Assay results from US20020156284A1, “Crystalline form of omeprazole” (priority 1998, published 2002).
“Also recorded” adds a separate entry of the source.

Experiments:
Type in all cases: physicochemical
[1] = thermodynamic stability of crystal forms
hygroscopicity = test: hygroscopicity
[2] = chemical stability (thermo stability and light stability); conditions: compared with omeprazole form B
[3] = compared with omeprazole form B, especially at room temperature

Compound | thermodynamic stability [1, 3] | hygroscopicity (absolute statement) (hygroscopicity) | hygroscopicity (hygroscopicity; [3]) | chemical stability, such as thermo stability and light stability [2] | conversion into the other crystal form ([1]; under certain conditions)
COc1ccc2[nH]c([S+]([O-])Cc3ncc(C)c(OC)c3C)nc2c1 (centres unmarked) [Omeprazole form A, 5-methoxy-2-[[(4-methoxy-3,5-dimethyl-2-pyridinyl)methyl]sulfinyl]-1H-benzimidazole] | thermodynamically more stable; also recorded: thermo-dynamically more stable than omeprazole form B | essentially non-hygroscopic | less hygroscopic than omeprazole form B | better chemical stability | –
COc1ccc2[nH]c([S+]([O-])Cc3ncc(C)c(OC)c3C)nc2c1 (centres unmarked) [Omeprazole form B, 5-methoxy-2-[[(4-methoxy-3,5-dimethyl-2-pyridinyl)methyl]sulfinyl]-1H-benzimidazole, reference compound] | – | – | – | – | completely or partly, be converted into omeprazole form A
